Drawing on patent US10669261B2, “Heteroarylhydroxypyrimidinones as agonists of the APJ receptor” (BRISTOL-MYERS SQUIBB COMPANY, priority 2015, dated 2020), this text covers EC50 for two compounds.

The assay concerns the target T1, human APJ receptor (Homo sapiens, UniProt P35414).
T1 construct: expressed in transfected cells
T1 sequence (P35414 1-380): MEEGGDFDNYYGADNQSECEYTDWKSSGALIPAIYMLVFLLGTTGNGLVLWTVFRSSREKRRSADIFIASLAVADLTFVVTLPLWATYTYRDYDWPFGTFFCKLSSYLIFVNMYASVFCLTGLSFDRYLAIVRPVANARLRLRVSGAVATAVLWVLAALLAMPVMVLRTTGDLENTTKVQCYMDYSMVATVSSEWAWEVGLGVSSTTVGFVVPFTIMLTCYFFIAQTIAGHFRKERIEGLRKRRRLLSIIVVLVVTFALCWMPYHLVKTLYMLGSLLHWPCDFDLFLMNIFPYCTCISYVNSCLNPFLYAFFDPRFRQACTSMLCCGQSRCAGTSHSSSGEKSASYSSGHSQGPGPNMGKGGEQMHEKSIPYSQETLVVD
The experiment in a line: Intracellular cAMP accumulation assay (APJ hcAMP, HTRF). The settings on record: Table 2; HEK293 cells stably expressing human APJ receptor; read-out: hAPJ cAMP EC50 Potency range. The format is cell-based. The gist of the method:
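Inhibition of forskolin (2 μM)-driven cAMP, with […], measured by HTRF after 30 min room-temperature compound exposure of stably transfected HEK293 cells. cAMP read from a standard curve; variable-slope fit gives EC50, and maximal inhibition is normalised to (Pyr1)apelin-13 as 100%.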
A general note: cAMP levels reflect the balance of adenylyl cyclase and phosphodiesterase activity.

As usually defined, the EC50 is the concentration needed to bring the measured effect to its halfway point. Regarding `CCCCc1nc(O)c(-c2nnc(Cc3ccc(Cl)cn3)o2)c(=O)n1[C@@H]1CCc2ccccc21` [Example 122], the EC50 was in the range of 0.01 to 0.1 µM.
`CCCCc1nc(O)c(-c2nnc(Cc3ccc(Cl)cn3)o2)c(=O)n1C(C)c1cccnc1` (centres unmarked) [Example 123, 2-butyl-5-{5-[(5-chloropyridin-2-yl)methyl]-1,3,4-oxadiazol-2-yl}-6-hydroxy-3-[1-(pyridin-3-yl)ethyl]-3,4-dihydropyrimidin-4-one]: the EC50 lay within 0.01 to 0.1 µM.
